Assay [1] deals with MDA-MB-231 breast cancer cell line. Particulars: read-out: MDA-MB-231 IC50; MDA-MB-231 cells, 72 h incubation, MTS readout.
Assay [2] has as its system HMLE breast cancer cell line. The note with it: for IC50: read-out: HMLE IC50.
Assay [3] has as its system MDA-MB-231 breast cancer cell line. Description: cells. Particulars: Homo sapiens, MDA-MB-231, 72 h, read-out: MDA-MB-231 IC50.

These results are taken from patent publication US12173012B2, “Indolocarbazole analogs of staurosporine and methods of synthesis thereof” (priority 2020, dated 2024).

Read-outs that look alike come from different tables or passages of the source.

With `CN[C@@H]1C[C@H]2O[C@@](C)([C@@H]1OC)n1c3cc(O)ccc3c3c4c(c5c6ccccc6n2c5c31)C(=O)NC4` [Compound 14, 10-OH staurosporine], the half-maximal inhibitory concentration (IC50) in assay [1] came out at 3.4 nM. Moreover, in assay [2], the “fold less active/potent than staurosporine against HMLE cell line” value was found to be 12.0 fold and the IC50 amounted to 58.7 nM.
As for `CN[C@@H]1C[C@H]2O[C@@](C)([C@@H]1OC)n1c3ccccc3c3c4c(c5c6ccccc6n2c5c31)C(=O)NC4` [Staurosporine], in assay [3], the IC50 was 2.5 nM.
Take `CN[C@@H]1C[C@H]2O[C@@](C)([C@@H]1OC)n1c3ccc(O)cc3c3c4c(c5c6ccccc6n2c5c31)C(=O)NC4` [Compound 13, 9-OH staurosporine]: the 50% inhibitory concentration (IC50) in assay [1] was found to be 2 nM. In addition, in assay [2], the “fold less active/potent than staurosporine against HMLE cell line” value was found to be 5.6 fold and the half-maximal inhibitory concentration (IC50) stood at 27.5 nM.

Usually IC50 stands for the midpoint of a concentration-inhibition curve.
